# Tests used:
# Format in all cases: in vivo, rat
# [1] = tested on: hydrochloric acid-induced cystitis; assay: urinary frequency in rats with hydrochloric acid-induced cystitis
# Excerpt: Twenty Sprague-Dawley rats (body weight 220-250 g) were randomly divided into four equal groups: group 1, normal controls; group 2, a sham treatment (HCl-induced IC, with subsequent saline instillation); group 3, a sham treatment (HCl-induced IC, with subsequent acetic acid instillation); and group 4, stimulated (HCl-induced IC with oxytocin and acetic acid instillation). The IC animal model developed by Rivas et al. was used (Rivas D A, Chancellor M B, Shupp-Byme D, Shenot P J, McHugh K, McCue P. A molecular marker for the development of interstitial cystitis in a rat model: isoactin gene expression. J. Urol. 1997; 157: 1937-1940); IC was induced in groups 2-4 under general anaesthesia (using a combined subcutaneous injection with acepromazine 0.05 mg/kg, ketamine 50 mg/kg and xylazine 5 mg/kg). A sterile polyethylene catheter (outside diameter 1.27 mm; Becton Dickinson Company, Sparks, Md., USA) was inserted into the bladder through the urethra and all urine aspirated. […]
# The micturition pattern was measured both before and 3 weeks after intravesical HCl instillation, using a Grass 79 Polygraph (Grass Instruments Co., Quincy, Mass., USA). Rats were placed into a metabolic cage and micturition recorded automatically for […] (17.00-09.00 hours); all rats were assessed at the same time of the day to minimise the effect of the circadian cycle on micturition frequency and volume. […]
# [2] = tested on: lipase; assay: caerulein-induced pancreatitis, lipase activity in pancreatic tissue; conditions: 1 mg/ml s.c.; caerulein alone 4.87±0.72, control 0.24±0.26
# Experimental: Caerulein-induced pancreatitis: Female Sprague-Dawley rats (200-250 g) were anaesthetized with pentobarbitone sodium and phenobarbitone sodium (each 40 mg/kg, i.p.). The cholecystokinin analogue caerulein (8 nmol/kg in 2 h) was infused via one jugular vein for exocrine hyperstimulation and induction of acute edematous pancreatitis (Lampel M, Kern H F. Acute interstitial pancreatitis in the rat in-duced by excessive doses of a pancreatic secretagogue. Virchows Arch (Pathol Anat) 1997; 373: 97-117), while control animals were infused with a corresponding volume (4 ml/kg/h) of phosphate-buffered saline. Pre-treatment with the kininase II inhibitor captopril ([…], i. p.) was given 30 min prior to the infusion of caerulein. At the end of the experiment, the animals were sacrificed with an overdose of pentobarbital sodium. The pancreatic tissue was dried for 16 h in a vacuum centrifuge and the edema was quantified as fluid wt. per dry wt. of the tissue. For the determination of lipase activity in serum, the blood was collected following decapitation in separate groups of rats. The pancreas of these animals was excised an placed immediately into 2 ml of a 154 mmol/l solution of NaCl. After centrifugation at 2×10^5 m/s^2 for 25 min the supernatant was stored at −80° C. All samples were assayed for lipase activity (lipase test Boehringer Mannheim, Germany).
# [3] = tested on: cyclophosphamide-induced cystitis; assay: cyclophosphamide-induced cystitis, plasma protein extravasation (Evans blue); conditions: oxytocin pre-treatment, 4 h
# Experimental: Cyclophosphamide (100 mg/kg) was injected i.p. in barbiturate-anaesthetised rats for the induction of acute cystitis. Control animals were injected with an appropriate volume (4 ml/kg) of the vehicle (154 mmol/l NaCl). Five min prior to the administration of cyclophosphamide or vehicle all animals were injected i.v. with the protein marker, Evans blue (20 mg/kg). At 4 h, when increases in vascular permeability have reached maximum values in this model (Aramori I, Zenkoh J, Morikawa N, O'Donnell N. Asano M, Nakamur K et al. Novel subtype-selective nonpeptide bradykinin antagonists FR167334 and FR173657. Mol Pharmacol 1997; 51: 171-176), the uriny bladder was excised following exsanguination, and the total tissue content of Evans blue was determined as above.
# Plasma protein extravasation in the urinary bladder of anaesthetised rats was made 4 h after i.p. injection of cyclophosphamide (100 mg/kg). Control animals were treated with appropriate volumes of the vehicles ([…] silicone oil or 4 ml/kg 154 mmol/l NaCl solution, respectively). Oxytocin (1 mg/ml) was injected s. c. 1 h before administration of xylene or cyclophosphamide while control rats received DMSO (0.5 ml/kg, s. c.). Plasma protein extravasation is given as total tissue content of the protein marker, Evans blue, given i. v. (20 mg/kg) 5 min prior to the induction of cystitis. […]
# [4] = tested on: allergic rhinitis; assay: allergic rhinitis, sneezing and nasal rubbing after antigen challenge in sensitised rats; conditions: % as compared to untreated; topical 10 μl/each nostril 1 h before antigen challenge; counted 30 min
# Experimental: Six-week-old male Wistar rats were housed in an air-conditioned room maintained at about 25° C. with humidity of about 50%. Rats were given a standard laboratory rodent chow and water ad libitum.
# Rats were generally sensitised by injection of 0.6 ml physiological saline containing egg albumin (1 mg), alum (2 mg) and […] killed Bordetella pertussis into the four footpads on the first day. Five days later they were boosted by subcutaneous injection of 1 ml of physiological saline containing egg albumin (0.5 mg) in 10 sites on the back. Then, local sensitisation was performed every day for about one week from day 14 by dripping the egg albumin dissolved in physiological saline (1 mg/ml, 10 μl) into the bilateral nasal cavities using a micropipette.
# After dripping 10 μl of egg albumin dissolved in physiological saline solution (1 mg/ml) into the bilateral nasal cavities, the numbers of nasal rubbing and sneezing were counted for 30 min and was set to 100%.
# In this study, the rats were used following intranasal sensitisation (from day 21 to day 23 after the first sensitisation). On the last day, drugs (saline or oxytocin) were given topically (10 μl/each nostril) 1 h before topical antigen challenge. […] Also saline caused a minor decrease.
substance,measurement,setting,value
Oxytocin,micturition frequency,"[1]; group 4 (HCl-induced IC with oxytocin 1 mg/ml instillation) vs group 2+3, after 3 weeks, P=0.05",significantly less
same,urine volume per micturition,[1]; group 4 (oxytocin instillation) vs group 2+3,not significantly higher
same,active lipase in the pancreatic tissue,[2],1.34±0.29 U/mg
same,"plasma protein extravasation, Evans blue accumulation in the bladder","[3]; cyclophosphamide 100 mg/kg i.p., cyclophosphamide alone 9.76±4.12",2.56 ± 1.28 mg
same,"plasma protein extravasation, Evans blue accumulation in the bladder",[3]; rats given the vehicle of cyclophosphamide,2.11 ± 1.37 mg
same,Nasal rubbing,[4],42%
same,Sneezing,[4],52%
